In US9040695B2, “Acid addition salts of risperidone and pharmaceutical compositions thereof” (TORRENT PHARMACEUTICALS LIMITED, priority 2011, dated 2015):

Key:
[1] = Intrinsic dissolution rate (disc method, HPLC analysis); type: physicochemical; details: phosphate buffer saline, 37° C., 200 rpm; for Intrinsic dissolution rate: 50 mg disc, drug equivalent to risperidone dissolved per unit area per unit time
Experimental: The risperidone hemipamoate of example-1 has intrinsic dissolution rates much less than that compared to risperidone alone as disclosed herein below. The intrinsic dissolution rates were determined by preparing discs of sample (50 mg) and performing dissolution by mounting the sample on shaft of dissolution apparatus with help of disc adaptor. The dissolution was performed in phosphate buffer saline, at 37° C. and rotation of 200 rpm. Samples were withdrawn at regular interval and analyzed by high performance liquid chromatography. The intrinsic dissolution rate was calculated as amount of drug (equivalent to risperidone) dissolved per unit area per unit time.

[2] = pK study in Wistar rats, aqueous suspensions by intramuscular route; type: in vivo, male wistar rats; details: single IM dose, 3.6 mg equivalent risperidone base, aqueous suspension, figure-3
Experimental: A comparative evaluation of pharmacokinetic profile of Risperidone, Rispridone pamoate and Risperidone hemipamoate was carried out in male wistar rats. Aqueous suspension formulations of Risperidone base, Pamoate and hemipamoate salt containing 3.6 mg equivalent risperidone base were administered through intramuscular route. Each group (N=5) was administered a single dose. Blood samples were withdrawn at predefined time interval for measurement of Risperidone and 9-hydroxyrisperidone.

[3] = poorly soluble salt suspended in aqueous vehicle, dogs; cited from earlier work

Cc1nc2n(c(=O)c1CCN1CCC(c3noc4cc(F)ccc34)CC1)CCCC2.Cc1nc2n(c(=O)c1CCN1CCC(c3noc4cc(F)ccc34)CC1)CCCC2.O=C(O)c1cc2ccccc2c(Cc2c(O)c(C(=O)O)cc3ccccc23)c1O [Risperidone hemipamoate]
Intrinsic dissolution rate compared to risperidone alone [1]: much less | Intrinsic dissolution rate [1]: 0.49 mg/cm^2/h | Absorption after IM administration [2]: absorbed rapidly | Exposure duration compared to risperidone pamoate [2]: remains sustained for longer duration | Plasma level course [2]: sustains for long duration comparatively

Cc1nc2n(c(=O)c1CCN1CCC(c3noc4cc(F)ccc34)CC1)CCCC2 [Risperidone pamoate, reference compound]
Absorption after IM administration [2]: absorbed rapidly | Plasma level course [2]: falls quickly | Period of effectiveness [3]: over 2 week

Cc1nc2n(c(=O)c1CCN1CCC(c3noc4cc(F)ccc34)CC1)CCCC2 [Risperidone, 3-[2-[4-(6-fluoro-1,2-benzisoxazol-3-yl)-1-piperidinyl]ethyl]-6,7,8,9-tetrahydro-2-methyl-4H-pyrido[1,2-a]pyrimidin-4-one]
Intrinsic dissolution rate [1]: 1.89 mg/cm^2/h
